Data reported in patent US9910031B2, “Compositions and methods for modulating c-Rel-dependent cytokine production” (Synta Pharmaceuticals Corporation, priority 2003, dated 2018).

Tests used:
[1] = test system: NFκB; experiment: Gel-shift assay of NFκB binding to the IL-12 p40 promoter site, THP-1 nuclear extracts; format: cell-based, human; conditions: IFN-γ-primed, SAC-stimulated THP-1; 1 μM Compound 1 or 10 mM ASA
Description: Nuclear extracts were prepared from IFN-γ-primed THP-1 cells that had been treated with or without SAC and incubated in the presence or absence of 1 μM Compound 1 or 10 mM ASA. Isolation of nuclear extracts was accomplished by first suspending THP-1 cells in 20 volumes of buffer A containing 10 mM KCl, 10 mM HEPES (pH 7.9), 1 mM MgCl2, 1 mM dithiothreitol (DTT), 0.1% Nonidet p40 (NP-40), and 0.5 mM phenylmethylsulfonyl fluoride (PMSF) and then homogenizing and centrifuging at 10,000 rpm at 4° C. for 5 min. Nuclear pellets were then suspended in buffer C containing 400 mM NaCl, 20 mM HEPES pH 7.9), 15 mM MgCl2, 0.2 mM EDTA, 1 mM DTT, 25% glycerol, 1 mM PMSF, and 10 μg of leupeptin, 20 μg of pepstatin, and 10 μg of antipain per ml, incubated for 30 min at 4° C., and centrifuge at 14,000 rpm for […]. The supernatants were dialyzed against buffer D containing 100 mM NaCl, 20 mM HEPES (pH 7.9), 20% glycerol, 1 mM PMSF, and 1 mM DTT.
The extracts obtained from this process were used in gel-shift assays using oligonucleotides containing the NFκB target sequence corresponding to the region −121 to −102 from the transcription initiation site of IL-12 p40 or a mutated NFκB binding site. […] This interaction was specific as it was competed away by an excess of unlabeled probe, but not by a mutated oligonucleotide in which two base-pairs were substituted. […]

[2] = test system: IL-12 p70; experiment: Inhibition of production of IL-12 p70 protein; format: cell-based, human; conditions: 1 μM Compound 1; 10 mM ASA
Description: Cells were co-transfected with the vector pCMV (BD Biosciences Clontech) in which the constitutively active CMV promoter directs β-galactosidase expression for the monitoring of transfection efficiency. Luciferase and β-galactosidase activity were determined in cell extracts prepared according to the Luciferase assay system (Promega) and Luminescent n-gal Detection system (BD Biosciences Clontech). Luciferase activity was then normalized using the β-galactosidase value. […] ELISA was performed by the following method. Human IL-12 p70 (heterodimer) was assayed using ELI-PAIR kit from Cell Sciences (Norwood, Mass.), according to the manufacturer's instructions. Human IL-12 p40 was assayed using ELISA kit from Cell Sciences (Norwood, Mass.) according to the manufacturer's instructions.
The extracts obtained from this process were used in gel-shift assays using oligonucleotides containing the NFκB target sequence corresponding to the region −121 to −102 from the transcription initiation site of IL-12 p40 or a mutated NFκB binding site. […] This interaction was specific as it was competed away by an excess of unlabeled probe, but not by a mutated oligonucleotide in which two base-pairs were substituted. […] This is expected since a compound that potently blocks NFkB have a far broader cytokine inhibitory profile than Compound 1/Compound 2.

NFκB binding to p40 promoter probe (gel shift) [1]: reduced the binding significantly
SMILES: CC(=O)Oc1ccccc1C(=O)O [ASA, reference compound]
percent inhibition of production of IL-12 p70 protein [2]: 45%
